The values that follow are results of earlier work, collected in US6447793B2, “Water soluble, broad spectrum preservative system” (The Collaborative Group, Ltd., priority 1998, dated 2002).

Among the test systems are mold; most bacterial; yeast.
Common to all, as to settings: pH of 4.5 or below

Consider `C/C=C/C=C/C(=O)O` [sorbic acid, Sorbic acid], for which the activity against mold entry in the series on mold was “very active”. Also, the “activity against most bacterial” value in the series on most bacterial is given as “poor”. The activity against yeast entry with yeast is listed as “fair”.
